Measurements published in PMC6891598, “Application of N-Dodecyl L-Peptide to Enhance Serum Stability while Maintaining Inhibitory Effects on Myometrial Contractions Ex Vivo” (Molecules, 2019).
“Also recorded” adds a separate entry of the source. Structures can show the parent of a compound that is named as a salt. Residues, ends and D or L forms follow the SMILES beside them.

Legend:
[1] = test system: murine myometrial tissue (PGF2α-induced contractions; FP); experiment: ex vivo mouse myometrial tissue contraction assay (PGF2α-induced); set-up: species or system mouse (CD-1); conditions: post-partum CD-1 mouse myometrial strips, Krebs buffer pH 7.4, 37 °C, 20 min pretreatment with peptide at two concentrations, then PGF2α; 4–6 experiments per group, means ± SEM, t-test, p < 0.05 vs vehicle
Description: All the peptides were initially tested in an ex vivo mouse myometrial tissue contraction assay. Contractile activity was measured on tissue that was harvested post-partum and treated with prostaglandin F2α (PGFα) alone (control) or in the presence of peptides L-4b-4g, L-7, and L-8. […] Mean tension induced by KCl (as a positive control) was not affected by L-4d.
Pregnant CD-1 mice (16-17 days gestation, term 19 days) were obtained from Charles River Inc. and used according to a protocol of the Animal Care Committee of Hôpital Sainte-Justine according to the principles of the Guide for the Care and Use of Experimental Animals of the Canadian Council on Animal Care. The animals were maintained on standard laboratory chow under a 12:12 light:dark cycle and allowed free access to chow and water.
The uterus from the CD-1 mouse was obtained from the animal immediately after term delivery under anesthesia (2.5% isoflurane). Briefly, a midline abdominal incision was made and the uterine horns were rapidly excised, cleansed carefully of the surrounding connective tissues, and removed. Longitudinal myometrial strips (2 to 3 mm wide and 1 cm long) were dissected free from the uterus and mounted isometrically in organ tissue baths. The initial tension was set at 2 g. The tissue baths contained 20 mL of Krebs buffer of the following composition (in mM): 118 NaCl, 4.7 KCl, 2.5 CaCl2, 0.9 MgSO4, 1 KH2PO4, 11.1 glucose, and 23 NaHCO3 (pH 7.4). The buffer was equilibrated with 95% oxygen/5% carbon dioxide at 37 °C. Isometric tension was measured by a force transducer and recorded by a BIOPAC data acquisition system (BIOPAC MP150, Montreal, PQ, Canada). Experiments were begun after 1 h equilibration. Mean tension of spontaneous contractions was measured using a BIOPAC digital polygraph system (AcqKnowledge); the same parameters were also determined after addition of PGF2α in the presence or the absence of a 20 min-pretreatment with different FP inhibitors. At the start of each experiment, mean tension of spontaneous myometrial contractions was considered as a reference response. Changes in mean tension (g) were expressed as percentages of the initial reference response (% of baseline).
At the start of each experiments, mean tension of spontaneous myometrial contractions was considered as a reference response. Increase in mean tension (%) was expressed as percentages of (X/Y)-100, where X is the change in mean tension (g) induced by PGF2α and Y is the initial reference response (g). Data are representative of 4–6 experiments per treated group. All results are expressed as means ± SEM and were compared by Independent t-tests. Statistical tests were performed with GraphPad Prism 4.3 software and p < 0.05 was considered statistically significant.

[2] = solubility in water (observation on handling); type: physicochemical; conditions: qualitative observation on the purified, freeze-dried peptide
Description: Linear sequences of L- and D-PDC31 linked to 2-chlorotrityl resin (L- and D-1) were obtained by solid phase peptide synthesis using standard Fmoc/t-Bu protocols. Peptide resin L-1 was treated with the appropriate aldehyde 2 (Scheme 1). The imine resin was washed to remove excess aldehyde, and reductive amination was performed using sodium cyanoborohydride to provide secondary amine resin 3. Removal of the protecting groups and resin cleavage were achieved using a cocktail of 95:2.5:2.5 TFA:TES:H2O to provide N-alkyl- and N-PEG-grafted peptides 4, which were purified by RP-HPLC (Table 1). […] An inseparable mixture of mono- and bis-N-alkyl peptides was isolated by HPLC from reaction with aldehyde of shorter chain length.
Increased lipophilic character may promote peptide aggregation and decrease solubility in aqueous solvent. […] For biological assays, solubility issues were surmounted by forming salts and using small amounts of DMSO. The influence of their amphiphilic character during purification by RP-HPLC and double alkylation from the reductive amination sequence may account for the lower isolated yields of peptides 4, 7 and 8.

[3] = serum stability study (mouse serum/plasma, MS/MS); type: in vitro ADME; conditions: mouse plasma (method: serum), 37 °C, LC-MS/MS, internal standard L-4f
Description: Peptide L-4d was further examined for stability in serum and compared to L-PDC31. The two peptides were incubated at 37 °C in mouse plasma. Aliquots were removed at different time intervals and analyzed by mass spectrometry (MS/MS) to detect remaining amount of peptide (Figure 3).
Serum was […] and kept on ice throughout the procedure. Two blanks were prepared by adding 5 µL of DMSO to 95 µL of serum. These were incubated for 2 h and submitted to the same treatment as the other samples. Two series of vials containing 95 µL of serum were prepared and spiked with either 5 µL of L-PDC31 [0.4 mM] or L-4d [0.4 mM], and incubated for 120, 60, 30, 15, 10 and 5 min, respectively, after which 100 µL of 4% phosphoric acid was added. Two vials were also spiked with 5 µL L-PDC31 and L-4d, respectively, and immediately treated with phosphoric acid (time = 0 min). The vials were incubated for 5 min at 95 °C, cooled on ice for 2 min, treated with 600 µL of cold MeCN containing L-4f (0.02 mM) as internal standard, and incubated at –20 °C overnight. After the incubation period, the vials were vortexed for 2 min and centrifuged at 4 °C for 15 min. The supernatant was transferred into LC-MS vials and analyzed.
Results were expressed as: (AN/IS/AN0/IS0)∗100
AN and IS refer, respectively, to the analyte and internal standard MS signals. Both values are compared with initial injection at which time AN0 and IS0 were not incubated.

[4] = test system: prostaglandin F2α receptor (FP); conditions: cited from earlier work
Description: The development of PDC31 originated from a library of sequences based on the second extracellular loop of FP. Short lead peptides were analyzed initially using in vitro and ex vivo analyses. […] Moreover, addition of the dodecyl chain enhanced plasma stability.

Row | Compound | effect on PGF2α-induced contractions (mean tension) of myometrial tissue [1] | solubility in water [2] | also measured
1 | CCCCCCCCCCCCN[C@@H](C(=O)N[C@H](CC(C)C)C(=O)NCC(=O)N[C@H](Cc1c[nH]cn1)C(=O)N[C@H](CCCNC(N)=O)C(=O)N[C@H](CC(=O)O)C(=O)N[C@H](Cc1ccc(O)cc1)C(=O)N[C@H](CCCCN)C(=O)O)[C@H](C)CC [D-4d, N-Dodecyl-D-Ile-D-Leu-Gly-D-His-D-Cit-D-Asp-D-Tyr- D-Lys-OH] (HELM PEPTIDE1{[CCCCCCCCCCCCN[C@@H](C(=O)[*:2])[C@H](C)CC].[dL].G.[dH].[NC(=O)NCCC[C@@H](N[*:1])C(=O)[*:2]].[dD].[dY].[dK]}$$$$V2.0) | trends suggesting protective effects; also recorded: lower potency than the unmodified D-peptide, PDC-31 | – | –
2 | CCCCCCN[C@H](C(=O)N[C@@H](CC(C)C)C(=O)NCC(=O)N[C@@H](Cc1c[nH]cn1)C(=O)N[C@@H](CCCNC(N)=O)C(=O)N[C@@H](CC(=O)O)C(=O)N[C@@H](Cc1ccc(O)cc1)C(=O)N[C@@H](CCCCN)C(=O)O)[C@@H](C)CC [L-4b, N-Hexanyl-Ile-Leu-Gly-His-Cit-Asp-Tyr-Lys-OH] (HELM PEPTIDE1{[CCCCCCN[C@H](C(=O)[*:2])[C@@H](C)CC].L.G.H.[Cit].D.Y.K}$$$$V2.0) | trends suggesting protective effects; also recorded: not statistically significant | – | –
3 | CCCCCCCCCCCCCN[C@H](C(=O)N[C@@H](CC(C)C)C(=O)NCC(=O)N[C@@H](Cc1c[nH]cn1)C(=O)N[C@@H](CCCNC(N)=O)C(=O)N[C@@H](CC(=O)O)C(=O)N[C@@H](Cc1ccc(O)cc1)C(=O)N[C@@H](CCCCN)C(=O)O)[C@@H](C)CC [L-4e, N-Tridecanyl-Ile-Leu-Gly-His-Cit-Asp-Tyr-Lys-OH] (HELM PEPTIDE1{[CCCCCCCCCCCCCN[C@H](C(=O)[*:2])[C@@H](C)CC].L.G.H.[Cit].D.Y.K}$$$$V2.0) | – | Except for peptide 4e, bearing the 18-carbon alkyl chain, peptides 4 were all soluble in water | –
4 | CC[C@H](C)[C@H](NCCOCCOCCOCCOC)C(=O)N[C@@H](CC(C)C)C(=O)NCC(=O)N[C@@H](Cc1c[nH]cn1)C(=O)N[C@@H](CCCNC(N)=O)C(=O)N[C@@H](CC(=O)O)C(=O)N[C@@H](Cc1ccc(O)cc1)C(=O)N[C@@H](CCCCN)C(=O)O [L-4g, N-2,7,8,11-tetraoxytetradecane-Ile-Leu-Gly-His-Cit-Asp-Tyr-Lys-OH] (HELM PEPTIDE1{[CC[C@H](C)[C@H](NCCOCCOCCOCCOC)C(=O)[*:2]].L.G.H.[Cit].D.Y.K}$$$$V2.0) | Neither PEGylated peptide L-4g nor N-farnesyl peptide L-7 exhibited activity | – | –
5 | CC[C@H](C)[C@H](NCC=C(C)CCC=C(C)CCC=C(C)C)C(=O)N[C@@H](CC(C)C)C(=O)NCC(=O)N[C@@H](Cc1c[nH]cn1)C(=O)N[C@@H](CCCNC(N)=O)C(=O)N[C@@H](CC(=O)O)C(=O)N[C@@H](Cc1ccc(O)cc1)C(=O)N[C@@H](CCCCN)C(=O)O [L-7, N-Farnesyl-Ile-Leu-Gly-His-Cit-Asp-Tyr-Lys-OH] (HELM PEPTIDE1{[CC[C@H](C)[C@H](NCC=C(C)CCC=C(C)CCC=C(C)C)C(=O)[*:2]].L.G.H.[Cit].D.Y.K}$$$$V2.0) | Neither PEGylated peptide L-4g nor N-farnesyl peptide L-7 exhibited activity | soluble in water | –
6 | CCCCCCCCCCCC(=O)N[C@H](C(=O)N[C@@H](CC(C)C)C(=O)NCC(=O)N[C@@H](Cc1c[nH]cn1)C(=O)N[C@@H](CCCNC(N)=O)C(=O)N[C@@H](CC(=O)O)C(=O)N[C@@H](Cc1ccc(O)cc1)C(=O)N[C@@H](CCCCN)C(=O)O)[C@@H](C)CC [L-8 HCl salt] (HELM PEPTIDE1{[CCCCCCCCCCCC(=O)[*:2]].I.L.G.H.[Cit].D.Y.K}$$$$V2.0) | – | – | solubility in water ([2]; listed as 8 hydrochloride salt): dissolved readily in water
7 | CCCCCCCCCCCC(=O)N[C@H](C(=O)N[C@@H](CC(C)C)C(=O)NCC(=O)N[C@@H](Cc1c[nH]cn1)C(=O)N[C@@H](CCCNC(N)=O)C(=O)N[C@@H](CC(=O)O)C(=O)N[C@@H](Cc1ccc(O)cc1)C(=O)N[C@@H](CCCCN)C(=O)O)[C@@H](C)CC [L-8, N-Dodecanoyl-Ile-Leu-Gly-His-Cit-Asp-Tyr-Lys-OH] (HELM PEPTIDE1{[CCCCCCCCCCCC(=O)[*:2]].I.L.G.H.[Cit].D.Y.K}$$$$V2.0) | inactive | poor solubility; also recorded: aqueous solubility issues | –
8 | CC[C@H](C)[C@H](N)C(=O)N[C@@H](CC(C)C)C(=O)NCC(=O)N[C@@H](Cc1c[nH]cn1)C(=O)N[C@@H](CCCNC(N)=O)C(=O)N[C@@H](CC(=O)O)C(=O)N[C@@H](Cc1ccc(O)cc1)C(=O)N[C@@H](CCCCN)C(=O)O [L-PDC31, H-Ile-Leu-Gly-His-Cit-Asp-Tyr-Lys-OH] (HELM PEPTIDE1{I.L.G.H.[Cit].D.Y.K}$$$$V2.0) | – | – | time to complete degradation in mouse plasma ([3]; 5 µL 0.4 mM peptide in 95 µL serum): ≤ 5 min; stability in mouse plasma, in words ([3]; incubation up to 2 hours): rapidly degraded in plasma
9 | H-ile-leu-Gly-his-arg-asp-tyr-lys-OH [PDC113] | – | – | activity as FP inhibitor, in words [4]: active FP inhibitor
10 | N-Octadecanyl-Ile-Leu-Gly-His-Cit-Asp-Tyr-Lys-OH [L-4f] | trends suggesting protective effects; also recorded: not statistically significant | required a small amount of DMSO to completely dissolve; also recorded: aqueous solubility issues; also recorded: poorly soluble in water | –
